This is an account of results in PubChem BioAssay (NCI).

Test systems include NCI-H522 lung; SK-MEL-2 melanoma; SNB-75 CNS; OVCAR-5 ovarian; NCI/ADR-RES ovarian; HS 578T breast; IGROV1 ovarian; OVCAR-3 ovarian; HCT-116 colon; EKVX NSCLC.
What all share (experiment): NCI-60 cell line screen, 48 h

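These data come from cells grown in 96-well plates and exposed to compound for 48 hours at five concentrations. At the GI50, growth is halved. TGI marks complete inhibition of growth.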

Turning to `Cc1oc2c(c1C(=O)N1CC[C@@H](N)C1)C(=O)c1c(c(O)c3ccccc3c1O)C2=O`, the GI50 was 1.39 µM in the assay on NCI-H522 lung; 11 µM in the assay on SK-MEL-2 melanoma; 2.11 µM in the assay on SNB-75 CNS; 5.2 µM in the assay on OVCAR-5 ovarian; 2.39 µM in the assay on NCI/ADR-RES ovarian; 5.23 µM with HS 578T breast. The GI50 in the assay with IGROV1 ovarian is 1.27 µM; in the assay on OVCAR-3 ovarian it was 2.68 µM; in the assay on HCT-116 colon, 1.28 µM. Moreover, the TGI stood at 4.77 µM in the assay with NCI-H522 lung; 23.9 µM in the assay on SK-MEL-2 melanoma; 15.4 µM in the assay with SNB-75 CNS; 18.9 µM in the assay with OVCAR-5 ovarian; 8.56 µM in the assay with NCI/ADR-RES ovarian; 22.6 µM in the assay on HS 578T breast. The TGI turned out to be 3.94 µM in the assay on IGROV1 ovarian, 9.5 µM in the assay on OVCAR-3 ovarian and 4.59 µM with HCT-116 colon.

`COc1cc(C2CC(=O)Nc3c2cc(Br)c2ccccc32)cc(Br)c1OC` (centres undefined): the GI50 is 3.67 µM with SK-MEL-2 melanoma; 0.998 µM in the assay with SNB-75 CNS; 3.02 µM with OVCAR-5 ovarian; 0.398 µM in the assay with NCI/ADR-RES ovarian; 1.78 µM in the assay with HS 578T breast; 2.61 µM with IGROV1 ovarian. The GI50 in the assay on OVCAR-3 ovarian was 1.14 µM; in the assay on HCT-116 colon it was 0.602 µM. The TGI in the assay with SK-MEL-2 melanoma is 27.2 µM; with SNB-75 CNS, 2.52 µM; with OVCAR-5 ovarian, more than 100 µM; in the assay with NCI/ADR-RES ovarian, 2.63 µM; in the assay on HS 578T breast, more than 54.2 µM; in the assay with IGROV1 ovarian it was more than 63.9 µM. Also, the TGI amounted to 2.52 µM in the assay on OVCAR-3 ovarian and 2.44 µM in the assay on HCT-116 colon.

For `COc1ccc(Oc2ccccc2NC(=O)CNC(=O)c2cccc3ccccc23)cc1`, the GI50 with NCI-H522 lung was 0.193 µM; with OVCAR-5 ovarian, 1.98 µM; in the assay on NCI/ADR-RES ovarian it was 0.427 µM; in the assay on HS 578T breast, 1.71 µM; with IGROV1 ovarian it was 1.57 µM; with OVCAR-3 ovarian, 0.387 µM. The GI50 in the assay with HCT-116 colon was 0.61 µM; in the assay with EKVX NSCLC, 1.37 µM. Also, the TGI in the assay with NCI-H522 lung, with OVCAR-5 ovarian, with NCI/ADR-RES ovarian, in the assay with HS 578T breast, in the assay on IGROV1 ovarian and in the assay on OVCAR-3 ovarian was more than 25 µM each time. The TGI with HCT-116 colon and in the assay with EKVX NSCLC was more than 25 µM throughout.

As to `CCN(CC)CCC(CNc1c(C)cnc2cc(Cl)ccc12)c1ccc(Cl)cc1` (centres undefined), the GI50 in the assay with NCI-H522 lung is 4.43 µM; in the assay with SK-MEL-2 melanoma, 3.91 µM; in the assay with SNB-75 CNS it was 5.67 µM; in the assay with OVCAR-5 ovarian it was 8.93 µM; in the assay on NCI/ADR-RES ovarian it was 10.2 µM; with HS 578T breast, 12.3 µM. Moreover, the GI50 with OVCAR-3 ovarian is 11.9 µM; in the assay with EKVX NSCLC, 5.46 µM. Also, the TGI came to 17.3 µM in the assay on NCI-H522 lung; 14.1 µM in the assay with SK-MEL-2 melanoma; 21 µM in the assay with SNB-75 CNS; 24 µM with OVCAR-5 ovarian; 23.5 µM with NCI/ADR-RES ovarian; 34.1 µM with HS 578T breast. Moreover, the TGI in the assay on OVCAR-3 ovarian was 25.5 µM; in the assay on EKVX NSCLC it was 19.5 µM.

Take `CC(=O)O.CC(=O)O.CC(=O)O.CC(=O)O.[Rh].[Rh]`: the GI50 in the assay with SK-MEL-2 melanoma is 30.7 µM; in the assay with SNB-75 CNS, 30.5 µM; in the assay on OVCAR-5 ovarian, 20.5 µM; in the assay on NCI/ADR-RES ovarian, 30.2 µM; in the assay with HS 578T breast, 60.6 µM; in the assay on IGROV1 ovarian, 34 µM. The GI50 was 26.1 µM with OVCAR-3 ovarian, 24.1 µM with HCT-116 colon and 20.7 µM with EKVX NSCLC. The TGI with SK-MEL-2 melanoma is 81.4 µM; in the assay with SNB-75 CNS, more than 100 µM; with OVCAR-5 ovarian, 52.4 µM; in the assay with NCI/ADR-RES ovarian, 92.2 µM; in the assay with HS 578T breast, more than 100 µM; in the assay on IGROV1 ovarian, 91.1 µM. Further, the TGI in the assay with OVCAR-3 ovarian was more than 100 µM; in the assay with HCT-116 colon, 94.1 µM; with EKVX NSCLC, 44.1 µM.

For the compound `COc1ccc(-c2ccc(/C=N/n3c(COc4ccccc4Cl)n[nH]c3=S)o2)c([N+](=O)[O-])c1`, the GI50 was 49 µM in the assay with NCI-H522 lung; more than 100 µM in the assay on SNB-75 CNS; 44.9 µM in the assay on OVCAR-5 ovarian; 22.6 µM in the assay with NCI/ADR-RES ovarian; 32.5 µM in the assay with HS 578T breast; 52.7 µM in the assay with IGROV1 ovarian. The GI50 was 17.7 µM in the assay on OVCAR-3 ovarian and 17.3 µM in the assay with HCT-116 colon. The TGI in the assay on NCI-H522 lung was more than 100 µM; with SNB-75 CNS, more than 100 µM; in the assay on OVCAR-5 ovarian it was more than 100 µM; in the assay with NCI/ADR-RES ovarian, 57.1 µM; with HS 578T breast, 98.7 µM; in the assay with IGROV1 ovarian, more than 100 µM. For the same compound, the TGI worked out at 46.7 µM in the assay on OVCAR-3 ovarian and 33.8 µM in the assay on HCT-116 colon.

With `CCN(CC)C(=O)COc1cc2c(O)c3c(O)c(C)c4c(c13)C(=O)C(C)(OC=CC(OC)C(C)C(OC(C)=O)C(C)C(O)C(C)C(O)C(C)C=CC=C(C)C(=O)N2)O4` (centres undefined), the TGI in the assay on SK-MEL-2 melanoma, in the assay on SNB-75 CNS, in the assay on OVCAR-5 ovarian, with NCI/ADR-RES ovarian, with HS 578T breast and in the assay with IGROV1 ovarian was more than 100 µM in each case. The TGI in the assay on OVCAR-3 ovarian, in the assay on HCT-116 colon and with EKVX NSCLC was more than 100 µM each time.
